Measurements from ChEMBL document CHEMBL5385867, “2-Phenoxy-3, 4'-bipyridine derivatives inhibit AURKB-dependent mitotic processes by disrupting its localization” (Eur J Med Chem, 2023).
Active and inactive are the calls of the source. The rule behind the calls is not given here.

How the values were obtained:
[1] = biological target: Aurora kinase B (Homo sapiens) (UniProt Q96GD4); assay: Disruption of AURKB localization in human RPE-MYC transfected with GFP-H2B assessed as minimal effective concentration that induces mitotic arrest, polyploidy, cell death and cell number reduction by MIPS assay; assay type: cell-based
Aurora kinase B (Homo sapiens), sequence (Q96GD4 whole entry, the tested form may be a part): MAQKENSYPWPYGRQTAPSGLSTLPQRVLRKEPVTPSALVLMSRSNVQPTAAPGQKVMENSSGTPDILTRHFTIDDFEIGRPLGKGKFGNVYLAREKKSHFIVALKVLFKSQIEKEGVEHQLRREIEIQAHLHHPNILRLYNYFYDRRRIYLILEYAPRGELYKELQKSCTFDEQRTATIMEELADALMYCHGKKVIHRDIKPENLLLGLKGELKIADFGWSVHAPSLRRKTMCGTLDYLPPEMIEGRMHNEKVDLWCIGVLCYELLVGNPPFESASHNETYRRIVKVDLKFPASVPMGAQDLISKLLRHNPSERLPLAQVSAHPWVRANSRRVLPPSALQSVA

[2] = biological target: T1, Aurora kinase A (Homo sapiens) (UniProt O14965); assay: Inhibition of Aurora kinase A in human RPE-MYC cells transfected with BCL2 assessed as inhibition of protein autophosphorylation at Thr288 residue by immunofluorescence staining based analysis; assay type: cell-based
T1 sequence (whole entry): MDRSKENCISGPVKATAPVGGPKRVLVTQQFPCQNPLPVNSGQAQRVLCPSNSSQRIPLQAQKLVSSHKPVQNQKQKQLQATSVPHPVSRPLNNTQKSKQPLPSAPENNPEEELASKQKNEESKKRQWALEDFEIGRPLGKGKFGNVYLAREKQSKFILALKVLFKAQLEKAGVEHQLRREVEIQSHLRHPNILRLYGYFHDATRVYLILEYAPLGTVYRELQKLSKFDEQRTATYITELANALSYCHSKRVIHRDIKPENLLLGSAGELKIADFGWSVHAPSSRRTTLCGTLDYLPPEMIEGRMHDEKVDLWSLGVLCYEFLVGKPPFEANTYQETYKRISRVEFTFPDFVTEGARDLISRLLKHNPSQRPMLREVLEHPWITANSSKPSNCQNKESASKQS

[3] = biological target: Aurora kinase B (Homo sapiens) (UniProt Q96GD4); assay: Inhibition of Aurora kinase B in human RPE-MYC cells transfected with BCL2 assessed as inhibition of histone H3 phosphorylation at Ser10 residue by immunofluorescence staining based analysis; assay type: cell-based
[4] = biological target: Aurora kinase B (Homo sapiens) (UniProt Q96GD4); assay: Disruption of AURKB localization in human RPE-MYC cells transfected with BCL2 assessed as loss of localization of MKLP1 at the spindle-midzone by immunofluorescence staining based analysis; assay type: cell-based
[5] = biological target: Aurora kinase B (Homo sapiens) (UniProt Q96GD4); assay: Inhibition of Aurora kinase B in human RPE-MYC cells transfected with BCL2 assessed as inhibition of histone H3 phosphorylation at Ser10 residue at MEC for polyploidy measured after 6 hrs by immunofluorescence staining based analysis; assay type: cell-based
[6] = biological target: Aurora kinase B (Homo sapiens) (UniProt Q96GD4); assay: Disruption of AURKB localization in human RPE-MYC cells transfected with BCL2 assessed as mislocalization of AURKB at the spindle zone in anaphase cells by immunofluorescence staining based analysis; assay type: cell-based
[7] = biological target: Aurora kinase B (Homo sapiens) (UniProt Q96GD4); assay: Disruption of AURKB localization in human RPE-MYC cells transfected with BCL2 assessed as loss of localization of microtubules at the spindle-midzone by immunofluorescence staining based analysis; assay type: cell-based
[8] = biological target: Aurora kinase B (Homo sapiens) (UniProt Q96GD4); assay: Disruption of AURKB localization in human RPE-MYC cells transfected with BCL2 assessed as loss of localization of PLK1 at the spindle-midzone by immunofluorescence staining based analysis; assay type: cell-based
[9] = Dose normalized AUC (0 to 6 hrs) in BALB/c mouse at 50 mg/kg, po compound formulated in PEG300 and administered as single dose by LC-MS/MS analysis; assay type: ADME, organism-based; conditions: in vivo
[10] = Cmax in BALB/c mouse at 50 mg/kg, po compound formulated in PEG300 and administered as single dose by LC-MS/MS analysis; assay type: ADME, organism-based; set-up: dose 50 mg/kg, route po; conditions: in vivo
[11] = biological target: Aurora kinase B (Homo sapiens) (UniProt Q96GD4); assay: Inhibition of Aurora kinase B in human RPE-MYC cells transfected with BCL2 assessed as inhibition of histone H3 phosphorylation at Ser10 residue at highest concentration measured after 6 hrs by immunofluorescence staining based analysis; assay type: cell-based
[12] = biological target: Epithelial discoidin domain-containing receptor 1 (Homo sapiens) (UniProt Q08345); assay: Inhibition of DDR1 (unknown origin)
Epithelial discoidin domain-containing receptor 1 (Homo sapiens), sequence (Q08345 whole entry, the tested form may be a part): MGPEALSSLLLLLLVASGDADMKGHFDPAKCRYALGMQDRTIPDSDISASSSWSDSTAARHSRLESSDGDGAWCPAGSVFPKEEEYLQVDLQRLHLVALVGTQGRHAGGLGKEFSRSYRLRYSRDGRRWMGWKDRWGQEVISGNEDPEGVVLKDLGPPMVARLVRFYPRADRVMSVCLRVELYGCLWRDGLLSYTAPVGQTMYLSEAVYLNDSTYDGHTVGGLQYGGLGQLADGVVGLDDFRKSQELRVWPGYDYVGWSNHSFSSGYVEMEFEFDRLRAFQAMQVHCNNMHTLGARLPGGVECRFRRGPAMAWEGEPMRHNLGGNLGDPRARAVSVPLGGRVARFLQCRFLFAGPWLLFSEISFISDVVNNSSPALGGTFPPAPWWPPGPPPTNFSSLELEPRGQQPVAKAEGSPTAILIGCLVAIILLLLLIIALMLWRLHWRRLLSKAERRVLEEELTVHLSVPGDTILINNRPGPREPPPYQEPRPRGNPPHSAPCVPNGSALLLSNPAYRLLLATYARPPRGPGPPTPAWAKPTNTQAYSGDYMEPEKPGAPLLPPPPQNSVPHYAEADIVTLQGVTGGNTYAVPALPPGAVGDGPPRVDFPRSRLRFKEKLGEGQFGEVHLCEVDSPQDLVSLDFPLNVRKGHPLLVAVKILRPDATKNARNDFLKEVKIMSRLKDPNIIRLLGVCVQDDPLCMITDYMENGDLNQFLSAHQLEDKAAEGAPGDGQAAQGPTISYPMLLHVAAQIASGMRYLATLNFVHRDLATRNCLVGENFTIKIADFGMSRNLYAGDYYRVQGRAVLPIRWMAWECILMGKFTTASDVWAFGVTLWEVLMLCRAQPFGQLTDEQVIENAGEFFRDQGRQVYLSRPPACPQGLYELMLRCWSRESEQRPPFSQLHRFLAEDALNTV

[13] = biological target: Aurora kinase B (Homo sapiens) (UniProt Q96GD4); assay: Disruption of AURKB localization in human RPE-MYC cells transfected with BCL2 assessed as accumulation of polyploid cells with multilobular nuclei at 2.5 nM measured after 48 hrs by immunofluorescence staining based analysis; assay type: cell-based
[14] = Induction of mitotic arrest in human RPE-MYC cells transfected with BCL2 assessed as mitotic index at 2.5 nM measured after 24 hrs by DAPI staining based bright field microscopic analysis (reference value: 3.5%); assay type: functional
[15] = biological target: T1, Aurora kinase A (Homo sapiens); assay: Inhibition of Aurora kinase A in human NCI-H23 cells transfected with BCL2 assessed as inhibition of protein autophosphorylation at Thr288 residue at 2.5 nM measured after 6 hrs by immunofluorescence staining based analysis; assay type: cell-based
[16] = biological target: T1, Aurora kinase A (Homo sapiens); assay: Inhibition of Aurora kinase A in human RPE-MYC cells transfected with BCL2 assessed as inhibition of protein autophosphorylation at Thr288 residue at 160 nM measured after 6 hrs by immunofluorescence staining based analysis; assay type: cell-based
[17] = biological target: Aurora kinase B (Homo sapiens) (UniProt Q96GD4); assay: Inhibition of Aurora kinase B in human RPE-MYC cells transfected with BCL2 assessed as inhibition of histone H3 phosphorylation at Ser10 residue at 2.5 nM measured after 6 hrs by immunofluorescence staining based analysis; assay type: cell-based
[18] = biological target: Aurora kinase B (Homo sapiens) (UniProt Q96GD4); assay: Inhibition of Aurora kinase B in human RPE-MYC cells transfected with BCL2 assessed as inhibition of histone H3 phosphorylation at Ser10 residue at >5 nM measured after 6 hrs by immunofluorescence staining based analysis; assay type: cell-based
[19] = biological target: Aurora kinase B (Homo sapiens) (UniProt Q96GD4); assay: Disruption of AURKB localization in human RPE-MYC cells transfected with BCL2 assessed as lagging chromosomes in anaphase cells at 2.5 nM measured after 24 hrs by immunofluorescence staining based analysis; assay type: cell-based
[20] = biological target: T1, Aurora kinase A (Homo sapiens); assay: Inhibition of Aurora kinase A in human RPE-MYC cells transfected with BCL2 assessed as inhibition of protein autophosphorylation at Thr288 residue at 2.5 nM measured after 6 hrs by immunofluorescence staining based analysis; assay type: cell-based
[21] = biological target: Aurora kinase B (Homo sapiens) (UniProt Q96GD4); assay: Disruption of AURKB localization during anaphase in human NCI-H23 cells at 2.5 nM measured after 24 hrs by immunofluorescence staining based analysis; assay type: cell-based
[22] = biological target: Aurora kinase B (Homo sapiens) (UniProt Q96GD4); assay: Disruption of AURKB localization in human RPE-MYC cells transfected with BCL2 assessed as misaligned chromosomes in metaphase-like cells at 2.5 nM measured after 24 hrs by immunofluorescence staining based analysis; assay type: cell-based
[23] = biological target: Aurora kinase B (Homo sapiens) (UniProt Q96GD4); assay: Inhibition of Aurora kinase B in human NCI-H23 cells transfected with BCL2 assessed as inhibition of histone H3 phosphorylation at Ser10 residue at 2.5 nM measured after 6 hrs by immunofluorescence staining based analysis; assay type: cell-based

`CNC(=O)c1cc(OC)cc(Oc2ncccc2-c2ccncc2)c1` showed an MEC [1] of 0.47 µM.
For `COC(=O)c1cccc(Oc2ncccc2-c2ccnc(N)n2)c1`, the MEC [1] was 0.85 µM.
For `COc1cc(OC)cc(Oc2ncccc2-c2ccnc(C)c2)c1`, the inhibition [2] was “inactive”, the MEC [1] was 0.08 µM and the inhibition [3] was “inactive”.
For `COc1cc(NC(C)=O)cc(Oc2ncccc2-c2ccnc(C)c2)c1`, the Activity [4] was “Active”, the inhibition [5] was “inactive” and the MEC [1] was 0.07 µM. For the same molecule, the Activity [6] was “Active”, the Activity [7] was “Active” and the Activity [8] was “Active”.
Work on `COc1ccc(Oc2ncccc2-c2ccnc(N)n2)cc1` yielded an MEC [1] of over 20 µM.
With `CNC(=O)c1cc(Oc2ncccc2-c2ccnc(C)c2)cc(OC(F)(F)F)c1` the Activity [4] was “Active”, the inhibition [5] was “inactive” and the MEC [1] was 0.12 µM. For the same molecule, the Activity [6] was “Active”, the AUC/dose [9] was 0.72 µM·h/mg/kg and the Cmax [10] was 14.4 µM. The Activity [7] was “Active” and the Activity [8] was “Active”.
Work on `CNC(=O)c1cc(OC)cc(Oc2ncccc2-c2ccnc(C)c2)c1` yielded an MEC [1] of 0.12 µM.
With `COC(=O)c1ccc(Oc2ncccc2-c2ccnc(N)n2)cc1` the MEC [1] was over 20 µM.
With `COc1cc(NC(C)=O)cc(Oc2ncccc2-c2ccnc(OC)c2)c1` the Activity [4] was “Active”, the inhibition [5] was “Active” and the MEC [1] was 0.03 µM. The Activity [6] was “Active”, the Activity [7] was “Active” and the Activity [8] was “Active”. For the same molecule, the inhibition [11] was under 68%.
Molecule `COc1cc(OC)cc(Oc2ncccc2-c2ccnc(N)n2)c1` has an MEC [1] of 0.37 µM.
For `COc1cc(OC)cc(Oc2ncccc2-c2cccnc2)c1`, the MEC [1] was 0.91 µM.
Molecule `COc1cc(Oc2ncccc2-c2ccncc2)cc(C(=O)N(C)C)c1` has an MEC [1] of 2.08 µM.
For `Nc1cccc(Oc2ncccc2-c2ccnc(N)n2)c1`, the MEC [1] was 20 µM.
For `COc1cc(NC(C)=O)cc(Oc2ncccc2-c2ccncc2)c1`, the Activity [4] was “Active”, the inhibition [5] was “inactive” and the inhibition [12] was “Active”. For the same molecule, the MEC [1] was 0.11 µM, the Activity [6] was “Active” and the Activity [7] was “Active”. The Activity [8] was “Active”.
Molecule `Nc1ccc(Oc2ncccc2-c2ccnc(N)n2)cc1` has an MEC [1] of 5 µM.
In the case of `Cc1csc(-c2nnc(Nc3ccc(Oc4ncccc4-c4ccnc(N)n4)cc3)c3ccccc23)c1` [AMG-900], the Activity [13] is reported as “Active”, the Activity [14] is reported as 7.8% and the inhibition [15] is reported as “inactive”. The inhibition [16] was 100%, the inhibition [17] was “inactive” and the inhibition [18] was “Active”. For the same molecule, the Activity [19] was “Active”, the inhibition [20] was “inactive” and the Activity [21] was “Active”. For the same molecule, the Activity [22] was “Active” and the inhibition [23] was “inactive”.
